Tests used:
Format in all cases: protein assay
Phosphodiesterase 4 [1] = biological target: T1, Phosphodiesterase 4 (Homo sapiens, UniProt P27815+Q08499+Q07343+Q08493); assay: Inhibition of human phosphodiesterase type IV (PDE4) at 10e-7 M
Phosphodiesterase 4 [2] = biological target: T1, Phosphodiesterase 4; assay: Affinity for rolipram binding site (RBS) of human neutrophil phosphodiesterase type IV (PDE4)
Phosphodiesterase 4 [3] = biological target: T1, Phosphodiesterase 4; assay: Selectivity for rolipram binding site over phosphodiesterase 4
Phosphodiesterase 4 [4] = biological target: T1, Phosphodiesterase 4; assay: Inhibition of human neutrophil phosphodiesterase type IV (PDE4)
Phosphodiesterase 4 [5] = biological target: T1, Phosphodiesterase 4; assay: Inhibition of rolipram binding to phosphodiesterase type IV (PDE4) at 10e-7 M
Phosphodiesterase 4 [6] = biological target: T1, Phosphodiesterase 4; assay: Inhibition of rolipram binding to phosphodiesterase type IV (PDE4)
Phosphodiesterase 4 [7] = biological target: T1, Phosphodiesterase 4; assay: Inhibition of rolipram binding to phosphodiesterase type IV (PDE4) at 10e-6 M

| inhibition (Phosphodiesterase 4 [1]) | Ki (Phosphodiesterase 4 [2]) | Ratio (Phosphodiesterase 4 [3]) | IC50 (Phosphodiesterase 4 [4]) | Binding (Phosphodiesterase 4 [5]) | Binding (Phosphodiesterase 4 [6]) | Binding (Phosphodiesterase 4 [7]) | Compound |
| --- | --- | --- | --- | --- | --- | --- | --- |
| 35% | 473 nM | – | – | – | – | – | COc1ccc2c(c1)CN(C(=O)N(C)C)N=C2Cc1c(Cl)cncc1Cl |
| – | 208 nM | 2.4 | 85 nM | – | – | – | COc1ccc2c(c1)CN(C(=O)NO)N=C2Cc1c(Cl)cncc1Cl |
| – | 212 nM | 1.9 | 113 nM | – | – | – | CCOC(=O)C(=O)N1Cc2cc(OC)ccc2C(Cc2c(Cl)cncc2Cl)=N1 |
| – | 237 nM | 8.5 | 28 nM | – | – | – | CCC(=O)N1Cc2cc(OC)ccc2C(Cc2c(Cl)cncc2Cl)=N1 |
| – | 199 nM | 2.8 | 72 nM | – | – | – | COC(=O)N1Cc2cc(OC)ccc2C(Cc2c(Cl)cncc2Cl)=N1 |
| – | 235 nM | 1.8 | 131 nM | – | – | – | CNC(=O)N1Cc2cc(OC)ccc2C(Cc2c(Cl)cncc2Cl)=N1 |
| – | 498 nM | 19.9 | 25 nM | – | – | – | COc1ccc2c(c1)CN(C(=O)C(C)C)N=C2Cc1c(Cl)cncc1Cl |
| – | 397 nM | 7.8 | 51 nM | – | – | – | COc1ccc2c(c1)CN(C(C)=O)N=C2Cc1c(Cl)cncc1Cl |
| – | 63 nM | 1.7 | 36 nM | – | – | – | COc1ccc2c(c1)CN(C(N)=O)N=C2Cc1c(Cl)cncc1Cl |

Second part, the compound before the results:

| Compound | inhibition (Phosphodiesterase 4 [1]) | Ki (Phosphodiesterase 4 [2]) | Ratio (Phosphodiesterase 4 [3]) | IC50 (Phosphodiesterase 4 [4]) | Binding (Phosphodiesterase 4 [5]) | Binding (Phosphodiesterase 4 [6]) | Binding (Phosphodiesterase 4 [7]) |
| --- | --- | --- | --- | --- | --- | --- | --- |
| COc1ccc2c(c1OC1CCCC1)CN(S(C)(=O)=O)N=C2Cc1c(Cl)cncc1Cl | – | 5 nM | 2.5 | 2 nM | – | – | – |
| COc1ccc2c(c1)CN(C(=O)c1ccccc1)N=C2Cc1c(Cl)cncc1Cl | – | – | > 20 | 30 nM | 17% | – | – |
| COc1ccc2c(Cc3c(Cl)cncc3Cl)nncc2c1OC1CCCC1 | – | – | 2.8 | – | – | – | – |
| COc1ccc2c(Cc3c(Cl)cncc3Cl)nncc2c1 | 0% | – | – | – | – | 42% | – |
| COc1ccc2c(c1)CNN=C2Cc1c(Cl)cncc1Cl | 14% | – | – | – | – | – | 13% |
| COc1ccc2c(c1)CN(C=O)N=C2Cc1c(Cl)cncc1Cl | 45% | 138 nM | – | – | – | – | – |
| COc1ccc2c(c1OC1CCCC1)CN(C(C)=O)N=C2Cc1c(Cl)cncc1Cl | – | 128 nM | 4.3 | 30 nM | – | – | – |
| COc1ccc2c(c1)CN(C(=O)Cc1ccccc1)N=C2Cc1c(Cl)cncc1Cl | – | – | > 20 | 12 nM | 36% | – | – |
| COc1ccc2c(c1)CN(S(C)(=O)=O)N=C2Cc1c(Cl)cncc1Cl | – | 60 nM | 2.9 | 21 nM | – | – | – |

— ChEMBL document CHEMBL1135093, “Phthalazine PDE4 inhibitors. Part 3: the synthesis and in vitro evaluation of derivatives with a hydrogen bond acceptor” (Bioorg Med Chem Lett, 2002)
